US7815803B2, “Preparation of samples for LC-MS/MS using magnetic particles” (Roche Diagnostics Operations, Inc., priority 2007, dated 2010)

Experiments:
[1] = in vivo; cited from earlier work
[2] = in vitro; cited from earlier work
[3] = Pooled serum from itraconazole treated patients, LC-MS/MS validation; assay type: in vivo, human; conditions: n=9
Description: A validation protocol was performed in three independent analytical series. In each series a five-point calibration was performed using a commercially available calibration material for itraconazole measurement (2,000 μg/l, 1,000 μg/l, 500 μg/l, 250 μg/l, and 125 μg/l; Recipe, Munich, Germany). Aliquots of pooled serum from itraconazole treated patients were analyzed in triplicate in each series to calculate a total coefficient of variation (n=9). Commercially available quality control materials (ClinCheck, Recipe, Munich, Germany) in two concentration ranges (target concentrations 150 μg/l, and 2,900 μg/l) were analyzed in the three series.
Linear calibration lines (r>0.99) were obtained in all series. For the pooled serum a total coefficient of variation of 3.4% was observed (mean concentration 380 μg/l); all quality control samples were found within the predefined accepted ranges (±10% of the target concentrations).

mean concentration in pooled serum [3] | SMILES | therapeutic trough concentration [1] | potency relative to cyclosporin [2]
– | COc1c(C)c2c(c(O)c1C/C=C(\C)CCC(=O)OCCN1CCOCC1)C(=O)OC2 [Mycophenolate mofetil, mycophenolate mofetil] | 1000 to 3500 µg/L | –
– | CO[C@H]1C[C@@H]2CC[C@@H](C)[C@@](O)(O2)C(=O)C(=O)N2CCCC[C@H]2C(=O)O[C@H]([C@H](C)C[C@@H]2CC[C@@H](O)[C@H](OC)C2)CC(=O)[C@H](C)/C=C(\C)[C@@H](O)[C@@H](OC)C(=O)[C@H](C)C[C@H](C)/C=C/C=C/C=C/1C [Sirolimus, sirolimus] | 5 to 15 µg/L | –
– | C=CC[C@@H]1/C=C(\C)C[C@H](C)C[C@H](OC)[C@H]2O[C@@](O)(C(=O)C(=O)N3CCCC[C@H]3C(=O)O[C@H](/C(C)=C/[C@@H]3CC[C@@H](O)[C@H](OC)C3)[C@H](C)[C@@H](O)CC1=O)[C@H](C)C[C@@H]2OC [Tacrolimus, tacrolimus] | 5 to 20 µg/L | up to 100 times
380 ng/mL | CCC(C)n1ncn(-c2ccc(N3CCN(c4ccc(OCC5COC(Cn6cncn6)(c6ccc(Cl)cc6Cl)O5)cc4)CC3)cc2)c1=O (centres unmarked) [itraconazole] | – | –
